# Results published in patent publication US20060069132A1, “Azolecarboxamide herbicides” (priority 2004, published 2006).
# Assays:
# Assay in all cases: Test E pre-/postemergence herbicide test
# guineagrass = assay type: in vivo, Panicum maximum
# Procedure, shortened: (§1)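 Test chemicals in a non-phytotoxic solvent mixture with surfactant applied preemergence to planted seeds and postemergence to plants 2 to 18 cm tall (1- to 4-leaf stage). After 12 to 14 days in the greenhouse, injury rated visually against untreated controls on a 0–100 scale (0 no effect, 100 complete control).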
# southern sandbur = assay type: in vivo, Cenchrus echinatus
# Procedure, shortened: as §1
# common chickweed = assay type: in vivo, Stellaria media
# From the text: Seeds of plant species selected from bipinnate beggarticks (Bidens bipinnata L.), hairy beggarticks (Bidens radiata Thuill.), bermudagrass (Cynodon dactylon (L.) Pers.), Surinam grass (Urochloa decumbens (Staph) R. D. Webster, previously named Brachiaria decumbens Stapf), large crabgrass (Digitaria sanguinalis (L.) Scop.), green foxtail (Setaria viridis (L.) P. Beauv.), goosegrass (Eleusine indica (L.) Gaertn.), johnsongrass (Sorghum halepense (L.) Pers.), kochia (Kochia scoparia (L.) Schrad.), pitted morningglory (Ipomoea lacunosa L.), purple nutsedge (Cyperus rotundus L.), common ragweed (Ambrosia elatior L.), mustard (Brassica nigra (L.) W. D. J. Koch), guineagrass (Panicum maximum Jacq.), dallisgrass (Paspalum dilatatum Poir.), barnyardgrass (Echinochloa crus-galli (L). P. Beauv.), southern sandbur (Cenchrus echinatus L.), common sowthistle (Sonchus oleraceous L.), prickly sida (Sida spinosa L.), Italian ryegrass (Lolium multiflorum Lam.), common purslane (Portulaca oleracea L.), broadleaf signalgrass (Brachiaria platyphylla (Griseb.) Nash), common groundsel (Senecio vulgaris L.), common chickweed (Stellaria media (L.) Vill/Cyr.), tropical spiderwort (Commelina benghalensis L.), annual bluegrass (Poa annua L.), downy bromegrass (Bromus tectorum L.), itchgrass (Rottboellia cochinchinensis (L.) L.f.), quackgrass (Elytrigia repens (L.) Nevski), Canada horseweed (Erigeron Canadensis L.), field bindweed (Convolvulus arvensis L.), spotted spurge (Euphorbia maculata L.), common mallow (Malva sylvestris (=s silvestris) L.), and Russian thistle (Salsola kali L. ssp. Ruthenica (Iljin) Soo) were planted and treated preemergence with test chemicals formulated in a non-phytotoxic solvent mixture which included a surfactant.
# At the same time, plants selected from these weed species were treated with postemergence applications of some of the test chemicals formulated in the same manner. Plants ranged in height from 2 to 18 cm (1- to 4-leaf stage) for postemergence treatments. Treated plants and controls were maintained in a greenhouse for 12 to 14 days, after which time all species were compared to controls and visually evaluated. Plant response ratings, summarized in Table E, are based on a scale of 0 to 100 where 0 is no effect and 100 is complete control. A dash (-) response means no test result.
# green foxtail = assay type: in vivo, Setaria viridis
# Procedure, shortened: as §1
# goosegrass = assay type: in vivo, Eleusine indica
# Procedure, shortened: as §1
# mustard = assay type: in vivo, Brassica nigra
# Procedure, shortened: as §1
# common sowthistle = assay type: in vivo, Sonchus oleraceous
# Procedure, shortened: as §1
# Italian ryegrass = assay type: in vivo, Lolium multiflorum
# Procedure, shortened: as §1
# tropical spiderwort = assay type: in vivo, Commelina benghalensis
# Procedure, shortened: as §1
# barnyardgrass = assay type: in vivo, Echinochloa crus-galli
# Procedure, shortened: as §1
# broadleaf signalgrass = assay type: in vivo, Brachiaria platyphylla
# Procedure, shortened: as §1
# [1] = Postemergence, 500 g ai/ha, scale 0 to 100
# [2] = Postemergence, 250 g ai/ha, scale 0 to 100
# [3] = Preemergence, 62 g ai/ha, scale 0 to 100
# [4] = Preemergence, 125 g ai/ha, scale 0 to 100
# [5] = Preemergence, 250 g ai/ha, scale 0 (no effect) to 100 (complete control)
# [6] = Preemergence, 500 g ai/ha, scale 0 (no effect) to 100 (complete control)
# [7] = postemergence, 125 g ai/ha, scale 0 to 100
# [8] = postemergence, 62 g ai/ha, scale 0 to 100
# [9] = Preemergence, 375 g ai/ha, scale 0 (no effect) to 100 (complete control)
compound,measurement,setting,value
"CCn1nc(C(C)(C)C)cc1C(=O)Nc1cccc(C(N)=O)n1 [Compound 162, 6-[[[3-(1,1-dimethylethyl)-1-ethyl-1H-pyrazol-5-yl]carbonyl]amino]-2-pyridinecarboxamide]","Plant response rating, Guineagrass",guineagrass; [1],98
same,"Plant response rating, Guineagrass",guineagrass; [2],90
same,"Plant response rating, Guineagrass",guineagrass; [3],50
same,"Plant response rating, Guineagrass",guineagrass; [4],100
same,"Plant response rating, Guineagrass",guineagrass; [5],100
same,"Plant response rating, Guineagrass",guineagrass; [6],100
same,"Plant response rating, Guineagrass",guineagrass; [7],75
same,"Plant response rating, Guineagrass",guineagrass; [8],35
same,"Plant response rating, Sandbur",southern sandbur; [1],90
same,"Plant response rating, Sandbur",southern sandbur; [2],80
same,"Plant response rating, Sandbur",southern sandbur; [3],20
same,"Plant response rating, Sandbur",southern sandbur; [4],70
same,"Plant response rating, Sandbur",southern sandbur; [5],80
same,"Plant response rating, Sandbur",southern sandbur; [6],80
same,"Plant response rating, Sandbur",southern sandbur; [7],50
same,"Plant response rating, Sandbur",southern sandbur; [8],20
same,"Plant response rating, Chickweed",common chickweed; [2],100
same,"Plant response rating, Chickweed",common chickweed; [4],95
same,"Plant response rating, Chickweed",common chickweed; [5],95
same,"Plant response rating, Chickweed",common chickweed; [6],95
same,"Plant response rating, Chickweed",common chickweed; [7],100
same,"Plant response rating, Chickweed",common chickweed; [8],80
same,"Plant response rating, Foxtail, Green",green foxtail; [1],95
same,"Plant response rating, Foxtail, Green",green foxtail; [2],85
same,"Plant response rating, Foxtail, Green",green foxtail; [3],30
same,"Plant response rating, Foxtail, Green",green foxtail; [4],85
same,"Plant response rating, Foxtail, Green",green foxtail; [5],100
same,"Plant response rating, Foxtail, Green",green foxtail; [6],100
same,"Plant response rating, Foxtail, Green",green foxtail; [7],50
same,"Plant response rating, Foxtail, Green",green foxtail; [8],30
same,"Plant response rating, Goosegrass",goosegrass; [1],98
same,"Plant response rating, Goosegrass",goosegrass; [2],95
same,"Plant response rating, Goosegrass",goosegrass; [3],60
same,"Plant response rating, Goosegrass",goosegrass; [4],90
same,"Plant response rating, Goosegrass",goosegrass; [5],95
same,"Plant response rating, Goosegrass",goosegrass; [6],95
same,"Plant response rating, Goosegrass",goosegrass; [7],80
same,"Plant response rating, Goosegrass",goosegrass; [8],50
same,"Plant response rating, Black Mustard",mustard; [1],95
same,"Plant response rating, Black Mustard",mustard; [2],90
same,"Plant response rating, Black Mustard",mustard; [3],20
same,"Plant response rating, Black Mustard",mustard; [4],50
same,"Plant response rating, Black Mustard",mustard; [5],80
same,"Plant response rating, Black Mustard",mustard; [6],100
same,"Plant response rating, Black Mustard",mustard; [7],75
same,"Plant response rating, Black Mustard",mustard; [8],60
same,"Plant response rating, Sowthistle",common sowthistle; [1],100
same,"Plant response rating, Sowthistle",common sowthistle; [2],75
same,"Plant response rating, Sowthistle",common sowthistle; [3],40
same,"Plant response rating, Sowthistle",common sowthistle; [4],60
same,"Plant response rating, Sowthistle",common sowthistle; [5],80
same,"Plant response rating, Sowthistle",common sowthistle; [6],95
same,"Plant response rating, Sowthistle",common sowthistle; [7],75
same,"Plant response rating, Sowthistle",common sowthistle; [8],75
same,"Plant response rating, Ryegrass, Italian",Italian ryegrass; [1],100
same,"Plant response rating, Ryegrass, Italian",Italian ryegrass; [2],98
same,"Plant response rating, Ryegrass, Italian",Italian ryegrass; [3],50
same,"Plant response rating, Ryegrass, Italian",Italian ryegrass; [4],95
same,"Plant response rating, Ryegrass, Italian",Italian ryegrass; [5],95
same,"Plant response rating, Ryegrass, Italian",Italian ryegrass; [6],95
same,"Plant response rating, Ryegrass, Italian",Italian ryegrass; [7],95
same,"Plant response rating, Ryegrass, Italian",Italian ryegrass; [8],50
same,"Plant response rating, Spiderwort",tropical spiderwort; [1],65
same,"Plant response rating, Spiderwort",tropical spiderwort; [2],60
same,"Plant response rating, Spiderwort",tropical spiderwort; [3],20
same,"Plant response rating, Spiderwort",tropical spiderwort; [4],40
same,"Plant response rating, Spiderwort",tropical spiderwort; [5],75
same,"Plant response rating, Spiderwort",tropical spiderwort; [6],75
same,"Plant response rating, Spiderwort",tropical spiderwort; [7],10
same,"Plant response rating, Spiderwort",tropical spiderwort; [8],0
same,"Plant response rating, Barnyardgrass",barnyardgrass; [1],95
same,"Plant response rating, Barnyardgrass",barnyardgrass; [2],90
same,"Plant response rating, Barnyardgrass",barnyardgrass; [3],60
same,"Plant response rating, Barnyardgrass",barnyardgrass; [4],100
same,"Plant response rating, Barnyardgrass",barnyardgrass; [5],100
same,"Plant response rating, Barnyardgrass",barnyardgrass; [6],100
same,"Plant response rating, Barnyardgrass",barnyardgrass; [7],80
same,"Plant response rating, Barnyardgrass",barnyardgrass; [8],60
same,"Plant response rating, Signalgrass",broadleaf signalgrass; [1],90
same,"Plant response rating, Signalgrass",broadleaf signalgrass; [2],80
same,"Plant response rating, Signalgrass",broadleaf signalgrass; [4],70
same,"Plant response rating, Signalgrass",broadleaf signalgrass; [5],100
same,"Plant response rating, Signalgrass",broadleaf signalgrass; [6],100
same,"Plant response rating, Signalgrass",broadleaf signalgrass; [7],70
same,"Plant response rating, Signalgrass",broadleaf signalgrass; [8],30
CCc1nn(C(C)(C)C)cc1C(=O)Nc1cc(C(=O)N(C)C)ccn1 [Compound 293],"Plant response rating, Guineagrass",guineagrass; [4],100
same,"Plant response rating, Guineagrass",guineagrass; [5],100
same,"Plant response rating, Guineagrass",guineagrass; [9],100
same,"Plant response rating, Guineagrass",guineagrass; [6],100
same,"Plant response rating, Sandbur",southern sandbur; [4],10
same,"Plant response rating, Sandbur",southern sandbur; [5],100
same,"Plant response rating, Sandbur",southern sandbur; [9],100
same,"Plant response rating, Sandbur",southern sandbur; [6],100
same,"Plant response rating, Foxtail, Green",green foxtail; [4],50
same,"Plant response rating, Foxtail, Green",green foxtail; [5],95
same,"Plant response rating, Foxtail, Green",green foxtail; [9],95
same,"Plant response rating, Foxtail, Green",green foxtail; [6],100
same,"Plant response rating, Goosegrass",goosegrass; [4],90
same,"Plant response rating, Goosegrass",goosegrass; [5],90
same,"Plant response rating, Goosegrass",goosegrass; [9],95
same,"Plant response rating, Goosegrass",goosegrass; [6],100
same,"Plant response rating, Black Mustard",mustard; [4],95
same,"Plant response rating, Black Mustard",mustard; [5],100
same,"Plant response rating, Black Mustard",mustard; [9],100
same,"Plant response rating, Black Mustard",mustard; [6],100
same,"Plant response rating, Sowthistle",common sowthistle; [4],75
same,"Plant response rating, Sowthistle",common sowthistle; [5],95
same,"Plant response rating, Sowthistle",common sowthistle; [9],95
same,"Plant response rating, Sowthistle",common sowthistle; [6],100
same,"Plant response rating, Ryegrass, Italian",Italian ryegrass; [4],60
same,"Plant response rating, Ryegrass, Italian",Italian ryegrass; [5],95
same,"Plant response rating, Ryegrass, Italian",Italian ryegrass; [9],95
same,"Plant response rating, Ryegrass, Italian",Italian ryegrass; [6],100
same,"Plant response rating, Spiderwort",tropical spiderwort; [4],60
same,"Plant response rating, Spiderwort",tropical spiderwort; [5],80
same,"Plant response rating, Spiderwort",tropical spiderwort; [9],80
same,"Plant response rating, Spiderwort",tropical spiderwort; [6],90
same,"Plant response rating, Barnyardgrass",barnyardgrass; [4],60
same,"Plant response rating, Barnyardgrass",barnyardgrass; [5],100
same,"Plant response rating, Barnyardgrass",barnyardgrass; [9],100
same,"Plant response rating, Barnyardgrass",barnyardgrass; [6],100
same,"Plant response rating, Signalgrass",broadleaf signalgrass; [4],50
same,"Plant response rating, Signalgrass",broadleaf signalgrass; [5],95
same,"Plant response rating, Signalgrass",broadleaf signalgrass; [9],95
same,"Plant response rating, Signalgrass",broadleaf signalgrass; [6],100
